# From PMC5225172 (Cancer Chemotherapy and Pharmacology, 2016)
# Test system: Japanese patients with advanced or refractory solid tumors
# Assay: Phase I safety and tolerability: adverse events (NCI CTCAE v4.03), DLT, MTD
# Experimental: Dosing on days 8 and 15 was permitted within a window of ±1 day if necessary, and dosing was considered missed if delayed by more than 1 day. Dose delays of up to 2 weeks were permitted for day 1 of cycle 2 or later, although for days 8 and 15 of cycle 2 and subsequent cycles, dosing within a window of ±3 days was permitted, except for in cycle 3, where dosing was to be administered within ±1 day of days 8 and 15.
# Patients were enrolled into cohort 1 and were evaluated for the occurrence of a dose-limiting toxicity (DLT) as defined by the National Cancer Institute Common Terminology Criteria for Adverse Events version 4.03. […] Completion of cycle 1 in cohort 1 constituted study completion.
# Protocol-defined DLTs included non-hematologic adverse events of grade ≥3. Hyperglycemia defined as a DLT was to be determined based on serum glucose values. Hematologic DLTs were defined as grade 4 neutropenia for ≥3 days, an absolute neutrophil count <1000 with fever ≥38.5 °C, and grade 4 thrombocytopenia. Patients with non-hematologic DLTs were to discontinue study treatment.
# Screening comprised: provision of written, informed consent; demographics; baseline characteristics; concomitant medications; safety assessments (adverse events [defined as any new finding not present in the patient’s medical history, or a worsening of a prior medical history finding], vital signs, laboratory tests, physical examination, 12-lead electrocardiogram, multigated acquisition scan, or echocardiogram); tumor measurements by computed tomography or magnetic resonance imaging; disease assessment as defined by RECIST version 1.1; ophthalmologic examination; chest computed tomography; and ECOG PS assessment. The following assessments were also performed on cycle 1, day 1: safety; ECOG PS assessment; concomitant medications; blood samples for PK analysis; serum samples for glucose analysis; serum insulin; urinalysis; serum ketones; and post-dose echocardiogram. Safety assessments, blood pressure measurements, blood sampling for PK analysis, and urinalysis were also performed on days 8 and 15 of cycle 1.
smiles,measurement,setting,value
"COc1c(OCCCN2CCOCC2)ccc2c1N=C(NC(=O)c1cnc(N)nc1)N1CCN=C21 [copanlisib, Copanlisib]","Treatment-emergent AE of all grades, irrespective of causality: Flu-like symptoms","Cohort 1, 0.4 mg/kg (n = 3)",0 n (%)
same,"Treatment-emergent AE of all grades, irrespective of causality: Flu-like symptoms","Cohort 2, 0.8 mg/kg (n = 7)",2 (28.6) n (%)
same,"Treatment-emergent AE of all grades, irrespective of causality: Flu-like symptoms",Total (N = 10),2 (20.0) n (%)
same,AEs leading to permanent discontinuation of study drug,"human, in vivo",2 (20.0) n (%)
same,Adverse events leading to study discontinuation,"human, in vivo",20.0%
same,Any AE,"human, in vivo",10 (100) n (%)
same,Any drug-related AE,"human, in vivo",10 (100) n (%)
same,Any serious AE,"human, in vivo",3 (30.0) n (%)
same,Grade 3 AE,"human, in vivo",5 (50.0) n (%)
same,Grade 3 drug-related AE,"human, in vivo",2 (20.0) n (%)
same,Grade 3 hypertension,"human, in vivo",no reports of grade 3 hypertension
same,Grade 4 AE,"human, in vivo",1 (10.0) n (%)
same,Hematologic and biochemical toxicity event: anemia,"human, in vivo",90.0%
same,Hematologic and biochemical toxicity event: hypoalbuminemia,"human, in vivo",90.0%
same,Hematologic and biochemical toxicity event: lymphocytopenia,"human, in vivo",90%
same,TEAE of all grades irrespective of causality: constipation,"human, in vivo",50.0%
same,TEAE of all grades irrespective of causality: hyperglycemia,"human, in vivo",80.0%
same,TEAEs of grade 3 as worst grade,"human, in vivo",50.0%
same,TEAEs of grade 3 as worst grade considered drug-related,"human, in vivo",20.0%
same,"Treatment-emergent AE of all grades, irrespective of causality: Acneiform rash","human, in vivo",3 (30.0) n (%)
same,"Treatment-emergent AE of all grades, irrespective of causality: Anemia","human, in vivo",3 (30.0) n (%)
same,"Treatment-emergent AE of all grades, irrespective of causality: Anorexia","human, in vivo",3 (30.0) n (%)
same,"Treatment-emergent AE of all grades, irrespective of causality: Constipation","human, in vivo",5 (50.0) n (%)
same,"Treatment-emergent AE of all grades, irrespective of causality: Cough","human, in vivo",2 (20.0) n (%)
same,"Treatment-emergent AE of all grades, irrespective of causality: Fever","human, in vivo",4 (40.0) n (%)
same,"Treatment-emergent AE of all grades, irrespective of causality: Hyperglycemia","human, in vivo",8 (80.0) n (%)
same,"Treatment-emergent AE of all grades, irrespective of causality: Hypertension","human, in vivo",7 (70.0) n (%)
same,"Treatment-emergent AE of all grades, irrespective of causality: Increased ALP","human, in vivo",4 (40.0) n (%)
same,"Treatment-emergent AE of all grades, irrespective of causality: Increased ALT","human, in vivo",3 (30.0) n (%)
same,"Treatment-emergent AE of all grades, irrespective of causality: Increased AST","human, in vivo",2 (20.0) n (%)
same,"Treatment-emergent AE of all grades, irrespective of causality: Insomnia","human, in vivo",2 (20.0) n (%)
same,"Treatment-emergent AE of all grades, irrespective of causality: Investigations, other","human, in vivo",4 (40.0) n (%)
same,"Treatment-emergent AE of all grades, irrespective of causality: Leukopenia","human, in vivo",4 (40.0) n (%)
same,"Treatment-emergent AE of all grades, irrespective of causality: Lymphocytopenia","human, in vivo",4 (40.0) n (%)
same,"Treatment-emergent AE of all grades, irrespective of causality: Malaise","human, in vivo",2 (20.0) n (%)
same,"Treatment-emergent AE of all grades, irrespective of causality: Nausea","human, in vivo",3 (30.0) n (%)
same,"Treatment-emergent AE of all grades, irrespective of causality: Neutropenia","human, in vivo",4 (40.0) n (%)
same,"Treatment-emergent AE of all grades, irrespective of causality: Oral mucositis","human, in vivo",2 (20.0) n (%)
same,"Treatment-emergent AE of all grades, irrespective of causality: Pruritus","human, in vivo",2 (20.0) n (%)
same,"Treatment-emergent AE of all grades, irrespective of causality: Tumor pain","human, in vivo",4 (40.0) n (%)
same,AEs leading to dose modification,"human, in vivo, 28 days",1 (33.3) n (%)
same,Patients with dose-limiting toxicity (DLT),"human, in vivo, 28 days",No patients treated at 0.4 mg/kg experienced a dose-limiting toxicity
same,Cases of colitis,in vivo,no cases of colitis
same,Deaths on study,in vivo,No deaths on study were reported
same,Hematologic and biochemical toxicity event: hyperglycemia,in vivo,all ten patients
same,Hematologic and biochemical toxicity event: increased creatinine,in vivo,all ten patients
same,Patients with dose-limiting toxicity (DLT),in vivo,No patients experienced DLTs
same,Patients with grade ≥3 elevated aminotransferase levels,in vivo,Two patients
same,Relationship to study drug: grade 3 Anemia,in vivo,Not likely to be related
same,Relationship to study drug: grade 3 Diarrhea,in vivo,Possibly related
same,Relationship to study drug: grade 3 Hepatobiliary disorder,in vivo,Not likely to be related
same,Relationship to study drug: grade 3 Hyperglycemia,in vivo,Possibly related
same,Relationship to study drug: grade 3 Increased ALP,in vivo,Not likely to be related
same,Relationship to study drug: grade 3 Increased ALT,in vivo,Not likely to be related
same,Relationship to study drug: grade 3 Insomnia,in vivo,Not likely to be related
same,Relationship to study drug: grade 3 Lymphocytopenia,in vivo,Possibly related
same,Relationship to study drug: grade 3 Stroke,in vivo,Not likely to be related
same,Relationship to study drug: grade 4 Increased AST,in vivo,Not likely to be related
same,Grade 5 adverse events,irrespective of causality,No grade 5 adverse events were reported
